Source: ChEMBL document CHEMBL1125332, “Synthesis and biological evaluation of 5'-sulfamoylated purinyl carbocyclic nucleosides” (J Med Chem, 1992)
Converted amounts (≈) assume the structure as drawn.

test system: P388; experiment: Cytotoxicity against P388 mouse leukemia cells; type: functional, cell-based

**Q.** With `CN(C)c1ncnc2c1ncn2C1CC(COS(N)(=O)=O)C(O)C1O` (centres undefined) as the compound, how does the IC50 read?
**A.** 74 µg/mL (≈ 199 µM)

**Q.** How did the IC50 turn out when `Nc1ncnc2c1ncn2COCCOS(N)(=O)=O` was run?
**A.** > 100 µg/mL

**Q.** For `Nc1ncnc2c1nnn2C1CC(CO)C(O)C1O` (centres undefined), which IC50 is on record?
**A.** 0.5 µg/mL (≈ 1.88 µM)

**Q.** How did the IC50 turn out when `CSc1ncnc2c1ncn2C1CC(COS(N)(=O)=O)C(O)C1O` (centres undefined) was run?
**A.** 50 µg/mL (≈ 133 µM)

**Q.** Which IC50 does the source give for `CNc1ncnc2c1ncn2C1CC(COS(N)(=O)=O)C(O)C1O` (centres undefined) here?
**A.** 4 µg/mL (≈ 11.2 µM)

**Q.** `Nc1ncnc2c1nnn2C1CC(COS(N)(=O)=O)C(O)C1O` (centres undefined) was tested. Which IC50 did it give?
**A.** 0.0625 µg/mL (≈ 0.181 µM)

**Q.** Which IC50 does the source give for `Nc1ncnc2c1ncn2C1CC(COS(N)(=O)=O)C(O)C1O` (centres undefined) here?
**A.** 0.125 µg/mL (≈ 0.363 µM)

**Q.** For `Nc1ncnc2c1ncn2[C@@H]1C[C@H](CO)[C@@H](O)[C@H]1O` [ARISTEROMYCIN], which IC50 is on record?
**A.** 0.5 µg/mL (≈ 1.88 µM)

**Q.** For `COc1ccc(C[C@H](N)C(=O)N[C@H]2[C@@H](O)[C@H](n3cnc4c(N(C)C)ncnc43)O[C@@H]2CO)cc1` [PUROMYCIN], which IC50 is on record?
**A.** 0.5 µg/mL (≈ 1.06 µM)
